# According to patent publication US12544381B2, “Topical formulation for JAK inhibitor” (Incyte Corporation, priority 2010, dated 2026):
# Structures can show the parent of a compound that is named as a salt.
# Assay: Solubility studies (Example 4)
# Format: physicochemical
# Experimental: In order to determine the solubility of (R)-3-(4-(7H-pyrrolo[2,3-d]pyrimidin-4-yl)-1H-pyrazol-1-yl)-3-cyclopentylpropanenitrile (free base) or its phosphate salt, approximately 5 mL of a potential solvent was added to approximately 50 mg of the API or its salt at room temperature. The mixtures were suspended and rotated on a wheel. If the mixtures became clear solutions, more solid material was added. The suspensions were then suspended over 24 hours. The samples were filtered through 0.2 micron filters. The liquid portions were collected and diluted with 50/50 water methanol/water. The concentrations of the diluted samples were analyzed by HPLC. When the free base or salt was fairly insoluble, the results are approximate only.
structure (smiles),measurement,setting,value
"N#CC[C@H](C1CCCC1)n1cc(-c2ncnc3[nH]ccc23)cn1 [Phosphate Salt, (R)-3-(4-(7H-pyrrolo[2,3-d]pyrimidin-4-yl)-1H-pyrazol-1-yl)-3-cyclopentylpropanenitrile Phosphoric Acid Salt]",Solubility,Benzyl alcohol,3000 µg/mL
same,Solubility,Ethanol,7300 µg/mL
same,Solubility,Glycerin,11000 µg/mL
same,Solubility,Isopropanol,600 µg/mL
same,Solubility,Isosorbide dimethyl ether,400 µg/mL
same,Solubility,Olelyl alcohol,100 µg/mL
same,Solubility,PEG 200,23000 µg/mL
same,Solubility,PEG 300,14000 µg/mL
same,Solubility,Propylene glycol,24000 µg/mL
same,Solubility,Transcutol,10000 µg/mL
same,Solubility,Trolamine,51000 µg/mL
same,Solubility,Water/PEG 200 (50/50),23000 µg/mL
same,Solubility,Water/glycerin/trolamine (40/40/20),18000 µg/mL
same,Solubility,Water/glyercin (50/50),21000 µg/mL
same,Solubility,"Water, room temperature",2700 µg/mL
same,Solubility,"pH 4, citric buffer, 0.1M",1500 µg/mL
same,Solubility,"pH 6, citric buffer, 0.1M",200 µg/mL
